Reference: patent publication US9381201B2, “Pharmaceutical composition and kit for treating bacterial infections” (priority 2011, dated 2016)

What was measured:
[1] = tested on: intracellular Mycobacterium tuberculosis; settings: cited from earlier work
[2] = tested on: gram-positive microorganisms; settings: many gram-positive microorganisms; cited from earlier work
gram-negative bacteria = settings: a large number of gram-negative bacteria; cited from earlier work
[3] = tested on: tuberculosis Mycobacterium; settings: cited from earlier work
Streptococcus pyogenes = Streptococcus pyogenes resistant to penicillin and other antibiotics; cited from earlier work
[4] = in vivo; cited from earlier work
[5] = tested on: Mycobacterium tuberculosis Erdman (ATCC 35801); assay: anti-tuberculosis activity on a model of mice infected with Mycobacterium tuberculosis (acute tuberculosis infection); settings: Rifalazil 2.5 mg/kg/day intraperitoneally, 3 week administration, BALB/c mice

Compound: CO[C@H]1/C=C/O[C@@]2(C)Oc3c(C)c(O)c4c(c3C2=O)C2=NC3(CCN(CC(C)C)CC3)NC2=C(NC(=O)/C(C)=C\C=C\[C@H](C)[C@H](O)[C@@H](C)[C@@H](O)[C@@H](C)[C@H](OC(C)=O)[C@@H]1C)C4=O [Rifabutin]
- active concentration relative to Rifampicin [1]: 2 times less

Compound: CO[C@H]1/C=C/O[C@@]2(C)Oc3c(C)c(O)c4c(O)c(c(/C=N/N5CCN(C)CC5)c(O)c4c3C2=O)NC(=O)/C(C)=C\C=C\[C@H](C)[C@H](O)[C@@H](C)[C@@H](O)[C@@H](C)[C@H](OC(C)=O)[C@@H]1C [Rifampicin]
- minimal inhibiting concentration [2]: 1 to 100 ng/mL
- minimal inhibiting concentration (gram-negative bacteria): 1000 to 10000 ng/mL
- minimal inhibiting concentration [3]: 5 to 500 ng/mL
- share of Streptococcus pyogenes sensitive (Streptococcus pyogenes): Over 95%

Compound: Rifalazil
- half-life of elimination [4]: > 100 h
- Lowering of micobacterium titers in mice lungs in comparison with the control (CMC) on the 31 day [5]: 87 times
